ChEMBL document CHEMBL4219087, “Investigation of multi-target-directed ligands (MTDLs) with butyrylcholinesterase (BuChE) and indoleamine 2,3-dioxygenase 1 (IDO1) inhibition: The design, synthesis of miconazole analogues targeting Alzheimer's disease” (Bioorg Med Chem, 2018)

Columns and labels:
[1] = molecular target: Indoleamine 2,3-dioxygenase 1 (Homo sapiens, UniProt P14902); assay: Inhibition of human recombinant IDO1 using L-tryptophan as substrate after 30 mins by fluorimetric analysis
[2] = Selectivity index, ratio of IC50 for electric eel AChE to IC50 for equine serum BChE
Cholinesterase = Cholinesterase (Equus caballus, UniProt P81908); assay: Inhibition of equine serum BChE using butyrylthiocholine iodide as substrate preincubated for 5 mins followed by substrate addition measured after 2 mins by modified Ellman assay
Acetylcholinesterase = Acetylcholinesterase (Electrophorus electricus, UniProt O42275); assay: Inhibition of electric eel AChE using acetylthiocholine iodide as substrate preincubated for 5 mins followed by substrate addition measured after 2 mins by modified Ellman assay
Mus musculus [3] = assay: Hepatotoxicity in ICR mouse assessed as serum AST level at 15 mg/kg, ig after 22 hrs; type: toxicity, organism-based; details: in vivo, po
Mus musculus [4] = assay: Hepatotoxicity in ICR mouse assessed as serum AST level at 15 mg/kg, ig after 36 hrs; type: toxicity, organism-based; details: in vivo, po
Mus musculus [5] = assay: Hepatotoxicity in ICR mouse assessed as fatty degeneration of hepatocytes surrounding intermediate and periportal zones at 15 mg/kg, ig after 30 hrs by hematoxylin and eosin staining-based assay; type: toxicity, organism-based; details: in vivo, po
Mus musculus [6] = assay: Hepatotoxicity in ICR mouse assessed as pericentral necrosis of hepatocytes surrounding intermediate and periportal zones at 15 mg/kg, ig after 30 hrs by hematoxylin and eosin staining-based assay; type: toxicity, organism-based; details: in vivo, po
Mus musculus [7] = assay: Hepatotoxicity in ICR mouse assessed as serum ALT level at 15 mg/kg, ig after 36 hrs; type: toxicity, organism-based; details: in vivo, po
Mus musculus [8] = assay: Hepatotoxicity in ICR mouse assessed as serum ALT level at 15 mg/kg, ig after 22 hrs; type: toxicity, organism-based; details: in vivo, po
Mus musculus [9] = assay: Reversal of scopolamine-induced cognitive function impairment in ICR mouse assessed as escape latency time at 15 mg/kg, po dosed 30 mins prior to scopolamine treatment by Morris water maze test (reference value: 40.5 sec); type: functional
Mus musculus [10] = assay: Hepatotoxicity in ICR mouse assessed as serum ALT level at 15 mg/kg, ig after 8 hrs; type: toxicity, organism-based; details: in vivo, po
Mus musculus [11] = assay: Hepatotoxicity in ICR mouse assessed as serum AST level at 15 mg/kg, ig after 8 hrs; type: toxicity, organism-based; details: in vivo, po

Sequence of Cholinesterase (P81908 whole entry): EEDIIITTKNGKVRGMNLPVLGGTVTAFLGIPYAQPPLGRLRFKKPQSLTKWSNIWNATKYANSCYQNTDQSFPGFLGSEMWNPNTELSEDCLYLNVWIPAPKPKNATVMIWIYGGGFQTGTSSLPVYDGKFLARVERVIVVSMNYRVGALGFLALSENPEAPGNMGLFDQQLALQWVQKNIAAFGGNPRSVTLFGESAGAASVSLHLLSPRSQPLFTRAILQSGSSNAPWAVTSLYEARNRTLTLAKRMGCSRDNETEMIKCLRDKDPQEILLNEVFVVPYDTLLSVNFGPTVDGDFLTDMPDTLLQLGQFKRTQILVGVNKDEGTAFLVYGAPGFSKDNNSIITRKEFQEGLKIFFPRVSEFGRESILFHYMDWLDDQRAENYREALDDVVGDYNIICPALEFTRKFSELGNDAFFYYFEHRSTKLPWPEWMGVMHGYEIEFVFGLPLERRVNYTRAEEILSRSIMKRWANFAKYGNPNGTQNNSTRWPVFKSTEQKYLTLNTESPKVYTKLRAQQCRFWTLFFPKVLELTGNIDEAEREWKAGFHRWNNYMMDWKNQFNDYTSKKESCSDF
Sequence of Indoleamine 2,3-dioxygenase 1 (P14902 whole entry): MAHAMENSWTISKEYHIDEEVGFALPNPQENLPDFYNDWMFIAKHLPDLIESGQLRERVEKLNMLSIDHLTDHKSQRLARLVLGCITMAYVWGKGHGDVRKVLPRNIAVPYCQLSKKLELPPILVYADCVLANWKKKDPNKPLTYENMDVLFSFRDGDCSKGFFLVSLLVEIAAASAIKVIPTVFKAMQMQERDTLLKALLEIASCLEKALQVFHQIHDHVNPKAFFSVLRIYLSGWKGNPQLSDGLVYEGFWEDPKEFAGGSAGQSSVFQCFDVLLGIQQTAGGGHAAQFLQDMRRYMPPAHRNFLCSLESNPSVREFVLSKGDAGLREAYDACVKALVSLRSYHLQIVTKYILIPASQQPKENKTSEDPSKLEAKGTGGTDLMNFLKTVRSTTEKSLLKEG
Sequence of Acetylcholinesterase (O42275 whole entry): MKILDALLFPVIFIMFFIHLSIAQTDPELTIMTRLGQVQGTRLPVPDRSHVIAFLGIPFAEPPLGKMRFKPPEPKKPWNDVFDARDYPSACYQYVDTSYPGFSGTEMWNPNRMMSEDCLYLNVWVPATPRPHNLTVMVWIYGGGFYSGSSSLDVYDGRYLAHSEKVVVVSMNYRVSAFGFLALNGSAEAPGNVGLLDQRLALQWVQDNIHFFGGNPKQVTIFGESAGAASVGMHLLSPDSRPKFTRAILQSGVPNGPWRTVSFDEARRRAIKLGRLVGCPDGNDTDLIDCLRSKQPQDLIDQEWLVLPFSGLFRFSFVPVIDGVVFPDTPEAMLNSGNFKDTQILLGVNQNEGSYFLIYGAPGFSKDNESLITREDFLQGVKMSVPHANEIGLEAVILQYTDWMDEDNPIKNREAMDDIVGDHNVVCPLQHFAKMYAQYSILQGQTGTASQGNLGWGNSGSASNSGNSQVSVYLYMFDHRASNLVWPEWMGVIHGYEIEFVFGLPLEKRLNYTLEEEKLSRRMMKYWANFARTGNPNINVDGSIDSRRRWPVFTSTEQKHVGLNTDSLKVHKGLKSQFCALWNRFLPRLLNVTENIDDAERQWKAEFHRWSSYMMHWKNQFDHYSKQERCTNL

`CC(C)(C)c1ccc(COC(Cn2ccnc2)c2ccc(Cl)cc2Cl)cc1` (centres undefined) gave an IC50 [1] of 4.4 µM, a Ratio IC50 [2] of 0.5 and an IC50 (Cholinesterase) of 46.3 µM. For the same compound, the IC50 (Acetylcholinesterase) was 24.3 µM.
For `COc1cccc(COC(Cn2ccnc2)c2ccc(Cl)cc2Cl)c1` (centres undefined), the Activity (Mus musculus [3]) was “Non-Toxic”, the IC50 [1] was 2.8 µM and the Activity (Mus musculus [4]) was “Non-Toxic”. The Activity (Mus musculus [5]) was “Non-Toxic”, the Activity (Mus musculus [6]) was “Non-Toxic” and the Ratio IC50 [2] was 9.9. For the same compound, the Activity (Mus musculus [7]) was “Non-Toxic”, the IC50 (Cholinesterase) was 8.3 µM and the Activity (Mus musculus [8]) was “Non-Toxic”. For the same compound, the Time (Mus musculus [9]) was 19.7 s, the IC50 (Acetylcholinesterase) was 81.3 µM and the Activity (Mus musculus [10]) was “Non-Toxic”. For the same compound, the Activity (Mus musculus [11]) was “Non-Toxic”.
For `Cc1cccc(COC(Cn2ccnc2)c2ccc(Cl)cc2Cl)c1` (centres undefined), the IC50 [1] was 1.2 µM, the Ratio IC50 [2] was 2.1 and the IC50 (Cholinesterase) was 14.6 µM. It also gave an IC50 (Acetylcholinesterase) of 30.7 µM.
For `Nc1c2c(nc3ccccc13)CCCC2` [TACRINE], the Time (Mus musculus [9]) was 25.9 s.
With `Fc1cccc(F)c1COC(Cn1ccnc1)c1ccc(Cl)cc1Cl` (centres undefined) the IC50 [1] was 4.2 µM, the Ratio IC50 [2] was 9.2 and the IC50 (Cholinesterase) was 19.2 µM. The IC50 (Acetylcholinesterase) was 176 µM.
For `Cc1ccc(COC(Cn2ccnc2)c2ccc(Cl)cc2Cl)cc1C` (centres undefined), the IC50 [1] was 2.2 µM, the Ratio IC50 [2] was 1.6 and the IC50 (Cholinesterase) was 11.2 µM. For the same compound, the IC50 (Acetylcholinesterase) was 17.3 µM.
`Cc1ccc(COC(Cn2ccnc2)c2ccc(Cl)cc2Cl)cc1` (centres undefined) showed an IC50 [1] of 2 µM, a Ratio IC50 [2] of 2.5 and an IC50 (Cholinesterase) of 10.9 µM. It also gave an IC50 (Acetylcholinesterase) of 26.9 µM.
`Cc1ccccc1COC(Cn1ccnc1)c1ccc(Cl)cc1Cl` (centres undefined) gave an IC50 [1] of 2.2 µM, a Ratio IC50 [2] of 2 and an IC50 (Cholinesterase) of 18.4 µM. For the same compound, the IC50 (Acetylcholinesterase) was 37.5 µM.
In the case of `COc1ccc(COC(Cn2ccnc2)c2ccc(Cl)cc2Cl)cc1` (centres undefined), the Activity (Mus musculus [3]) is reported as “Non-Toxic”, the IC50 [1] is reported as 1 µM and the Activity (Mus musculus [4]) is reported as “Non-Toxic”. For the same compound, the Activity (Mus musculus [5]) was “Non-Toxic”, the Activity (Mus musculus [6]) was “Non-Toxic” and the Ratio IC50 [2] was 4.4. The Activity (Mus musculus [7]) was “Non-Toxic”, the IC50 (Cholinesterase) was 16.5 µM and the Activity (Mus musculus [8]) was “Non-Toxic”. The Time (Mus musculus [9]) was 13.4 s, the IC50 (Acetylcholinesterase) was 73.1 µM and the Activity (Mus musculus [10]) was “Non-Toxic”. The Activity (Mus musculus [11]) was “Non-Toxic”.
For `Fc1ccc(COC(Cn2ccnc2)c2ccc(Cl)cc2Cl)cc1` (centres undefined), the IC50 [1] was 4 µM, the Ratio IC50 [2] was 2.3 and the IC50 (Cholinesterase) was 14.8 µM. The IC50 (Acetylcholinesterase) was 33 µM.
Compound `Clc1ccc(C(Cn2ccnc2)OCc2ccc(Br)cc2)c(Cl)c1` (centres undefined) has an IC50 [1] of 5.7 µM, a Ratio IC50 [2] of 1.5 and an IC50 (Cholinesterase) of 13.1 µM. For the same compound, the IC50 (Acetylcholinesterase) was 19.5 µM.
